In brackets after ≈: the same amount, converted by molar mass.
Assays:
hRV-2 = assay: Rhinovirus type 2 antiviral assay in Hela Rh cells, MTS readout; assay type: cell-based, Human rhinovirus; details: Rhinovirus A, HRV2, HeLa Rh, Hela Rh cells; read-out: hRV-2 EC50
hRV-9 = assay: Rhinovirus type 9 antiviral assay in Hela Rh cells, MTS readout; assay type: cell-based, Human rhinovirus; details: Human rhinovirus sp., HRV9, HeLa Rh, Hela Rh cells; read-out: hRV-9 EC50
hRV-14 = assay: Rhinovirus type 14 antiviral assay in Hela Rh cells, MTS readout; assay type: cell-based, Human rhinovirus; details: Rhinovirus B, HRV14, HeLa Rh, Hela Rh cells; read-out: hRV-14 EC50
hRV-15 = assay: Rhinovirus type 15 antiviral assay in Hela Rh cells, MTS readout; assay type: cell-based, Human rhinovirus; details: Human rhinovirus sp., HRV15, HeLa Rh, Hela Rh cells; read-out: hRV-15 EC50
hRV-29 = assay: Rhinovirus type 29 antiviral assay in Hela Rh cells, MTS readout; assay type: cell-based; details: Human rhinovirus sp., HRV29, HeLa Rh, Hela Rh cells; read-out: hRV-29 EC50
hRV-39 = assay: Rhinovirus type 39 antiviral assay in Hela Rh cells, MTS readout; assay type: cell-based, Human rhinovirus; details: Human rhinovirus sp., HRV39, HeLa Rh, Hela Rh cells; read-out: hRV-39 EC50
hRV-41 = assay: Rhinovirus type 41 antiviral assay in Hela Rh cells, MTS readout; assay type: cell-based, Human rhinovirus; details: Human rhinovirus sp., HRV41, HeLa Rh, Hela Rh cells; read-out: hRV-41 EC50
hRV-42 = assay: Rhinovirus type 42 antiviral assay in Hela Rh cells, MTS readout; assay type: cell-based, Human rhinovirus; details: Human rhinovirus sp., HRV42, HeLa Rh, Hela Rh cells; read-out: hRV-42 EC50
hRV-45 = assay: Rhinovirus type 45 antiviral assay in Hela Rh cells, MTS readout; assay type: cell-based, Human rhinovirus; details: Human rhinovirus sp., HRV45, HeLa Rh, Hela Rh cells; read-out: hRV-45 EC50
hRV-63 = assay: Rhinovirus type 63 antiviral assay in Hela Rh cells, MTS readout; assay type: cell-based, Human rhinovirus; details: Human rhinovirus sp., HRV63, HeLa Rh, Hela Rh cells; read-out: hRV-63 EC50
hRV-70 = assay: Rhinovirus type 70 antiviral assay in Hela Rh cells, MTS readout; assay type: cell-based, Human rhinovirus; details: Human rhinovirus sp., HRV70, HeLa Rh, Hela Rh cells; read-out: hRV-70 EC50
hRV-72 = assay: Rhinovirus type 72 antiviral assay in Hela Rh cells, MTS readout; assay type: cell-based, Human rhinovirus; details: Human rhinovirus sp., HRV72, HeLa Rh, Hela Rh cells; read-out: hRV-72 EC50
hRV-85 = assay: Rhinovirus type 85 antiviral assay in Hela Rh cells, MTS readout; assay type: cell-based, Human rhinovirus; details: Human rhinovirus sp., HRV85, HeLa Rh, Hela Rh cells; read-out: hRV-85 EC50
hRV-86 = assay: Rhinovirus type 86 antiviral assay in Hela Rh cells, MTS readout; assay type: cell-based, Human rhinovirus; details: Human rhinovirus sp., HRV86, HeLa Rh, Hela Rh cells; read-out: hRV-86 EC50
[1] = Cytostatic/cytotoxic effect in Hela Rh cells (rhinovirus methodology, MTS); details: human, CC50, Hela Rh cells

Row | SMILES | EC50 (hRV-2) [µg/mL] | EC50 (hRV-9) [µg/mL] | EC50 (hRV-14) [µg/mL] | EC50 (hRV-15) [µg/mL] | EC50 (hRV-29) [µg/mL] | EC50 (hRV-39) [µg/mL] | EC50 (hRV-41) [µg/mL] | EC50 (hRV-42) [µg/mL] | EC50 (hRV-45) [µg/mL] | EC50 (hRV-63) [µg/mL] | EC50 (hRV-70) [µg/mL] | EC50 (hRV-72) [µg/mL] | EC50 (hRV-85) [µg/mL] | EC50 (hRV-86) [µg/mL] | CC50 [1] [µg/mL]
1 | Nc1nc(N2CCN(C(=O)COc3cccc([N+](=O)[O-])c3)CC2)c2nc(CCc3ccc(F)cc3)sc2n1 [Example 131, 5-amino-2-[2-(4-fluorophenyl)ethyl]-7-(4-[2-(3-nitrophenoxy)acetyl]piperazin-1-yl)-thiazolo[5,4-d]pyrimidine] | 2.5 (≈ 4.65 µM) | 2.11 (≈ 3.93 µM) | > 50 | > 50 | > 50 | 1.52 (≈ 2.83 µM) | > 50 | 12.3 (≈ 22.8 µM) | 9.05 (≈ 16.8 µM) | 34.5 (≈ 64.3 µM) | 15.3 (≈ 28.4 µM) | 37.7 (≈ 70.2 µM) | 7.26 (≈ 13.5 µM) | 7.07 (≈ 13.2 µM) | > 50
2 | CC(C)(C)OC(=O)N[C@@H]1CCN(c2nc(N)nc3sc(-c4ccc(F)cc4)cc23)C1 [Example 338, (R)-tert-butyl 1-(2-amino-6-(4-fluorophenyl)thieno[2,3-d]pyrimidin-4-yl)pyrrolidin-3-ylcarbamate] | 0.37 (≈ 0.861 µM) | 0.78 (≈ 1.82 µM) | 1.11 (≈ 2.58 µM) | 1.52 (≈ 3.54 µM) | 0.39 (≈ 0.908 µM) | 0.38 (≈ 0.885 µM) | 27.4 (≈ 63.7 µM) | 5.65 (≈ 13.2 µM) | 4.23 (≈ 9.85 µM) | 8.43 (≈ 19.6 µM) | 3.65 (≈ 8.5 µM) | 4.96 (≈ 11.5 µM) | 2.17 (≈ 5.05 µM) | 2.37 (≈ 5.52 µM) | > 50
3 | Nc1nc(N2CCN(C(=O)COc3ccc(Cl)cc3)CC2)c2nc(CCCc3ccc(F)cc3)sc2n1 [Example 290, 1-(4-(5-amino-2-(3-(4-fluorophenyl)propyl)thiazolo[5,4-d]pyrimidin-7-yl)piperazin-1-yl)-2-(4-chlorophenoxy)ethanone] | 49.2 (≈ 91 µM) | > 50 | > 50 | > 50 | > 50 | > 50 | > 50 | > 50 | > 50 | > 50 | > 50 | > 50 | 19.4 (≈ 35.8 µM) | > 50 | > 50
4 | COc1cccc(CCc2nc3c(N4CCN(C(=O)COc5ccc(Cl)cc5)CC4)nc(N)nc3s2)c1 [Example 255, 1-(4-(5-amino-2-(3-methoxyphenethyl)thiazolo[5,4-d]pyrimidin-7-yl)piperazin-1-yl)-2-(4-chlorophenoxy)ethanone] | 0.65 (≈ 1.21 µM) | 0.52 (≈ 0.965 µM) | 0.53 (≈ 0.983 µM) | 1.82 (≈ 3.38 µM) | 0.6 (≈ 1.11 µM) | 0.5 (≈ 0.928 µM) | 20.8 (≈ 38.6 µM) | 1.1 (≈ 2.04 µM) | 2.34 (≈ 4.34 µM) | 3.31 (≈ 6.14 µM) | 4.02 (≈ 7.46 µM) | > 50 | 2.18 (≈ 4.04 µM) | 2.61 (≈ 4.84 µM) | > 50
5 | COc1ccc(CCc2nc3c(N4CCN(C(=O)COc5ccc(Br)cc5)CC4)nc(N)nc3s2)cc1OC [Example 256, 1-(4-(5-amino-2-(3,4-dimethoxyphenethyl)thiazolo[5,4-d]pyrimidin-7-yl)piperazin-1-yl)-2-(4-bromophenoxy)ethanone] | 2.07 (≈ 3.37 µM) | 4.05 (≈ 6.6 µM) | 2.81 (≈ 4.58 µM) | > 50 | 4.06 (≈ 6.62 µM) | 1.8 (≈ 2.93 µM) | > 50 | 5.22 (≈ 8.51 µM) | > 50 | 32.9 (≈ 53.6 µM) | 5.97 (≈ 9.73 µM) | 6.89 (≈ 11.2 µM) | 9.48 (≈ 15.5 µM) | 4.86 (≈ 7.92 µM) | > 50
6 | COc1ccc(OCC(=O)N2CCN(c3nc(N)nc4sc(-c5ccc(F)cc5)nc34)CC2)cc1 [Example 234, 1-(4-(5-amino-2-(4-fluorophenyl)thiazolo[5,4-d]pyrimidin-7-yl)piperazin-1-yl)-2-(4-methoxyphenoxy)ethanone] | 0.06 (≈ 0.121 µM) |  | > 50 | 29.3 (≈ 59.2 µM) | 0.04 (≈ 0.0809 µM) | 0.08 (≈ 0.162 µM) | 25.5 (≈ 51.6 µM) | 30.1 (≈ 60.9 µM) |  | 1.32 (≈ 2.67 µM) | > 50 | > 50 | < 0.39 | > 50 | > 50
7 | Nc1nc(N2CCN(C(=O)COc3ccc(Br)cc3)CC2)c2nc(-c3ccc(F)cc3)sc2n1 [Example 235, 1-(4-(5-amino-2-(4-fluorophenyl)thiazolo[5,4-d]pyrimidin-7-yl)piperazin-1-yl)-2-(4-bromophenoxy)ethanone] | < 0.02 | < 0.02 | 0.04 (≈ 0.0736 µM) | < 0.02 | < 0.02 | < 0.02 | < 0.39 | < 0.39 | < 0.39 | < 0.39 | < 0.39 | 0.65 (≈ 1.2 µM) | < 0.39 | 0.58 (≈ 1.07 µM) | > 50
8 | Nc1nc(N2CCN(C(=O)COc3ccc(Cl)cc3)CC2)c2nc(CCCCc3ccc(F)cc3)sc2n1 [Example 292, 1-(4-(5-amino-2-(4-(4-fluorophenyl)butyl)thiazolo[5,4-d]pyrimidin-7-yl)piperazin-1-yl)-2-(4-chlorophenoxy)ethanone] | 13.6 (≈ 24.6 µM) | > 50 | > 50 | > 50 | > 50 | 39.4 (≈ 70.9 µM) | > 50 | > 50 | > 50 | > 50 | > 50 | > 50 | 10.3 (≈ 18.6 µM) | > 50 | > 50
9 | Nc1nc(N2CCN(C(=O)COc3ccc(OC(F)(F)F)cc3)CC2)c2nc(CCc3ccc(F)cc3)sc2n1 [Example 226, 1-(4-(5-amino-2-(4-fluorophenethyl)thiazolo[5,4-d]pyrimidin-7-yl)piperazin-1-yl)-2-(4-(trifluoromethoxy)phenoxy)ethanone] | > 50 | > 50 | > 50 | > 50 | > 50 | > 50 | > 50 | > 50 | > 50 | > 50 | > 50 | > 50 | 29.9 (≈ 51.9 µM) | > 50 | > 50
10 | COc1ccc(OCC(=O)N2CCN(c3nc(N)nc4sc(-c5ccc(C)cc5)nc34)CC2)cc1 [Example 294, 1-(4-(5-amino-2-p-tolylthiazolo[5,4-d]pyrimidin-7-yl)piperazin-1-yl)-2-(4-methoxyphenoxy)ethanone] | < 0.02 | 0.02 (≈ 0.0408 µM) | 29.1 (≈ 59.4 µM) | 1.82 (≈ 3.71 µM) | < 0.02 | < 0.02 | 0.43 (≈ 0.876 µM) | 0.63 (≈ 1.28 µM) | < 0.39 | < 0.39 | 5.26 (≈ 10.7 µM) | 20.6 (≈ 41.9 µM) | < 0.39 |  | > 50
11 | Nc1nc(N2CCN(C(=O)COc3cccc(Cl)c3)CC2)c2nc(CCc3ccc(F)cc3)sc2n1 [Example 228, 1-(4-(5-amino-2-(4-fluorophenethyl)thiazolo[5,4-d]pyrimidin-7-yl)piperazin-1-yl)-2-(3-chlorophenoxy)ethanone] | 1.27 (≈ 2.41 µM) | 1.16 (≈ 2.2 µM) | 9.21 (≈ 17.5 µM) | 43.9 (≈ 83.2 µM) | 1.38 (≈ 2.62 µM) | 1.28 (≈ 2.43 µM) | > 50 |  |  | 13.8 (≈ 26.1 µM) | 10 (≈ 19.1 µM) | > 50 | 4.14 (≈ 7.86 µM) | 4.86 (≈ 9.22 µM) | > 50
12 | COc1ccc(OCC(=O)N2CCN(c3nc(N)nc4sc(CCc5ccc(C)cc5)nc34)CC2)cc1 [Example 259, 1-(4-(5-amino-2-(4-methylphenethyl)thiazolo[5,4-d]pyrimidin-7-yl)piperazin-1-yl)-2-(4-methoxyphenoxy)ethanone] | 0.48 (≈ 0.925 µM) | 0.35 (≈ 0.675 µM) | > 50 | > 50 | 0.41 (≈ 0.791 µM) | 0.32 (≈ 0.617 µM) | > 50 | > 50 | 2.56 (≈ 4.94 µM) | 18.3 (≈ 35.3 µM) | > 50 | > 50 | 1.52 (≈ 2.93 µM) |  | > 50

From patent publication US9730944B2, “Antiviral activity of novel bicyclic heterocycles” (priority 2010, dated 2017)
